Measured values as given in EP2100602A1, “Method and compositions suitable for treatment of wounds” (QuoNova Europe GmbH, priority 2008, dated 2009).

Tested on: Pseudomonas aeruginosa
Assay: Porcine second degree burn wound model infected with Pseudomonas aeruginosa; flush culture (planktonic) and scrub culture (biofilm) counts
Format: in vivo
Conditions: pig burn wounds; for reduction of counts of planktonic P. aeruginosa: ointment without SSD; for reduction of biofilm bacteria: treatment within 20 minutes of inoculation, compared to the vehicle control, SSD not printed for these labels
[1] = used within 20 minutes of wound inoculation

SMILES	reduction of counts of planktonic P. aeruginosa (used on established biofilms)	reduction of counts of planktonic P. aeruginosa [1]	reduction of biofilm bacteria [Log]	reduction of biofilm P. aeruginosa (without SSD, used within 20 minutes) [Log]
Cn1nc(C(C)(C)C)cc1C(=O)NNC(=O)c1ccc(Cl)s1 [Compound 1]	largest reduction	largest reduction	2	1
CCCCCCCCCC(=O)CC(=O)Nc1cc(C)ns1 [Compound 2]		lower counts	1.5	
CCCCCCCCCC(=O)CC(=O)N(C)c1ccc(F)cc1 [Compound 3]		lower counts		
